Consider 10 compounds from patent EP4389751A1, “HETEROCYCLIC COMPOUNDS AND USES THEREOF” (Kumquat Biosciences Inc., priority 2021, dated 2024).

Like-named read-outs stand apart in the source and are kept apart here. Bounds are passed on as bounds.

One test concerns the target T1, K-Ras G12S (Homo sapiens, UniProt P01116, G12S).
T1 construct: made in house; host or cells: E. coli (e.g., BL21 (DE3))
Put plainly: HTRF assay of the K-Ras / SOS1 interaction. Type of test: biochemical. To be noted: IC50 (against K-Ras G12D) to IC50 (against K-Ras G12S). The method, boiled down:
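Compounds (duplicates, 10 µM to 0.01 µM) were incubated ≥~10 min with Eu-labelled GST-K-Ras G12S and XL665-labelled His-hSOS1 in HEPES pH 7.4 buffer containing NaCl, DTT, BSA and Igepal. Disruption measured as HTRF emission ratio 665/620 nm, fitted to IC50.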

The target of test [1] is T2, KRAS protein (His-tagged GDP-loaded G12S 1-169) (Homo sapiens, UniProt P01116, G12S).
T2 construct: His-tagged GDP-loaded G12S 1-169
T2 sequence (P01116 1-169 isoform P01116-2 G12S): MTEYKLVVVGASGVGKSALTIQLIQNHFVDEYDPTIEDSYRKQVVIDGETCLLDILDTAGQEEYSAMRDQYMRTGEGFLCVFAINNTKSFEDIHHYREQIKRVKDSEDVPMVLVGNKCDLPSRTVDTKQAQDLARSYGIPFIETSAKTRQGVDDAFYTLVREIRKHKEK
The experiment in a line: Covalent modification of KRAS protein, intact-protein LC-MS. Type of test: binding. To be noted: 24hrs at room temperature, KRAS protein ~2 µM. The method, boiled down:
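Percent covalent modification derives from deconvoluted intact-mass intensities of compound-adducted versus unmodified KRAS, measured by LC-ESI-MS. Before analysis, ~2 µM GDP-loaded His-KRAS 1-169 was exposed to compound for 24 h at room temperature and acidified with formic acid.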

For a further test, the system named is A549 cells. Put plainly: Cell proliferation assay (CellTiter-Glo), K-Ras G12S cells. Type of test: cell-based. To be noted: for IC50: Homo sapiens. How it is done: A549 (ATCC CRL-185) and LS123 (ATCC CRL-255) cell lines comprise a G12S mutation and can be used to assess Ras cellular signaling in vitro, e.g., in response to the compounds herein. A549 culture medium is prepared with RPMI-1640 and 10% heat-inactivated FBS. LS123 culture medium is prepared with RPMI-1640 and 10% heat-inactivated FBS. A CellTiter-Glo (CTG) luminescent based assay (Promega) is used to assess growth of the cells, as a measurement of the ability of the compounds herein to inhibit Ras signaling in the cells. The cells (e.g., 800 per well) are seeded in their respective culture medium in standard tissue culture-treated 384-well format plates (Falcon #08-772-116) or ultra-low attachment surface 384-well format plates (S-Bio # MS-9384WZ). The day after plating, cells are treated with a dilution series (e.g., a 10 point 3-fold dilution series) of the compounds herein (e.g., approximately 40 µl final volume per well). Cell viability can be monitored (e.g., approximately 6 days later) according to the manufacturer's recommended instructions, where the CellTiter-Glo reagent is added (e.g., approximately 10 µl), vigorously mixed, covered, and placed on a plate shaker (e.g., approximately for 20 min) to ensure sufficient cell lysis prior to assessment of luminescent signal. The IC50 values are determined using the four parameter fit. The resulting IC50 value is a measurement of the ability of the compounds herein to reduce cell growth of Ras-driven cells (e.g., tumor cell lines) in vitro and/or in vivo.

The next test relates to GP2D cells. Put plainly: Cell proliferation assay (CellTiter-Glo), K-Ras G12D cells. The format is cell-based. To be noted: read-out: Inhibition of GP2D Cells (IC50). In short, it runs like this: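 CellTiter-Glo luminescence, taken roughly 5 days after dosing, measured growth of G12D-mutant GP2D cells in DMEM/2 mM glutamine/10% FBS. Compound dilution series (e.g., 9 points, 3-fold) added the day after plating. Four-parameter fitting gave IC50.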

Where [2] appears, read: A549, A549 cells (K-Ras G12S), bin 500 nM to 5 µM, read-out: Inhibition of A549 Cells (IC50).
Setting [3] is: A549, A549 cells (K-Ras G12S), bin ≤ 500 nM, read-out: Inhibition of A549 Cells (IC50).
Where [4] appears, read: A549, read-out: Inhibition of A549 Cells (IC50).

T1 sequence (P01116 1-188 isoform P01116-2 G12S): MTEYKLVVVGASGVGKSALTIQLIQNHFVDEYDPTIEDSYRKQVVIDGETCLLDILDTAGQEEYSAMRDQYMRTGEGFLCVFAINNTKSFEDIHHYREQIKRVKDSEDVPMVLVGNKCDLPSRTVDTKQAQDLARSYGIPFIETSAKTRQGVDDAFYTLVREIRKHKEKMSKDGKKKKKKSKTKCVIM

In the case of `N#Cc1c(N)sc2c(F)ccc(-c3c(Cl)cc4c(N5CC(F)(F)C6(CN(C(=O)n7cncn7)C6)C5)nc(OC[C@@]56CCCN5C[C@H](F)C6)nc4c3F)c12` [Compound A199, 2-amino-4-(6-chloro-4-(8,8-difluoro-2-(1H-1,2,4-triazole-1-carbonyl)-2,6-diazaspiro[3.4]octan-6-yl)-8-fluoro-2-(((2R,7aS)-2-fluorotetrahydro-1H-pyrrolizin-7a(5H)-yl)methoxy)quinazolm-7-yl)-7-fluorobenzo[b]thiophene-3-carbonitrile], the “Ratio of IC50 KRAS G12D vs. IC50 KRAS G12S” value at K-Ras G12S is recorded as “A (A: indicates that the ratio of IC50 against KrasG12D vs. IC50 against KrasG12S is 1-fold or greater)”. In addition, the “% G12S Modification at 24 hr.” value in test [1] is “+++ (+++ indicates greater than 20% labelling)”. The “ratio of IC50 against a G12D cell line to IC50 against a G12S cell line” value in the test with A549 cells (K-Ras G12D cell line such as GP2D relative to K-Ras G12S cell line such as A549, greater than 1, 2, 3, 4, 5, 10, 15 or even greater, 8640 min) was “greater than 1”.

`Nc1nc2c(-c3c(Cl)cc4c(N5CC6CCC(C5)N6C(=O)n5cncn5)nc(OC[C@@]56CCCN5C[C@H](F)C6)nc4c3F)ccc(F)c2s1` [Compound A111, (3-(7-(2-amino-7-fluorobenzo[d]thiazol-4-yl)-6-chloro-8-fluoro-2-(((2R,7aS)-2-fluorotetrahydro-1H-pyrrolizin-7a(5H)-yl)methoxy)quinazolin-4-yl)-3,8-diazabicyclo[3.2.1]octan-8-yl)(1H-1,2,4-triazol-1-yl)methanone]: the “Ratio of IC50 KRAS G12D vs. IC50 KRAS G12S” value at K-Ras G12S was “A (A: indicates that the ratio of IC50 against KrasG12D vs. IC50 against KrasG12S is 1-fold or greater)”. Also, the IC50 is 500 to 5000 nM in the test with A549 cells (setting [2]) and at most 1000 nM in the test with GP2D cells (GP2D cells (K-Ras G12D)).

In the case of `N#Cc1c(N)sc2c(F)ccc(-c3c(Cl)cc4c(N5CC6CCN(C(=O)n7cncn7)C6C5)nc(OC[C@@]56CCCN5C[C@H](F)C6)nc4c3F)c12` (stereo partly drawn) [Compound A180, 4-(4-(1-(1H-1,2,4-triazole-1-carbonyl)hexahydropyrrolo[3,4-b]pyrrol-5(1H)-yl)-6-chloro-8-fluoro-2-(((2R,7aS)-2-fluorotetrahydro-1H-pyrrolizin-7a(5H)-yl)methoxy)quinazolm-7-yl)-2-amino-7-fluorobenzo[b]thiophene-3-carbonitrile], the “Ratio of IC50 KRAS G12D vs. IC50 KRAS G12S” value on K-Ras G12S was “A (A: indicates that the ratio of IC50 against KrasG12D vs. IC50 against KrasG12S is 1-fold or greater)”. Further, the IC50 in the test with A549 cells (setting [3]) was at most 500 nM; with GP2D cells (GP2D cells (K-Ras G12D)) it was 1000 to 10000 nM.

Turning to `N#Cc1c(N)sc2c(F)ccc(-c3c(Cl)cc4c(N5CC6CCC(C5)N6C(=O)n5cncn5)nc(OC[C@@]56CCCN5C[C@H](F)C6)nc4c3F)c12` [Compound A260, 4-(4-(8-(1H-1,2,4-triazole-1-carbonyl)-3,8-diazabicyclo[3.2.1]octan-3-yl)-6-chloro-8-fluoro-2-(((2R,7aS)-2-fluorotetrahydro-1H-pyrrolizin-7a(5H)-yl)methoxy)quinazolin-7-yl)-2-amino-7-fluorobenzo[b]thiophene-3-carbonitrile], on K-Ras G12S, the “Ratio of IC50 KRAS G12D vs. IC50 KRAS G12S” value is “A (A: indicates that the ratio of IC50 against KrasG12D vs. IC50 against KrasG12S is 1-fold or greater)”. Also, the results for the IC50 in the test on A549 cells (setting [3]) and in the test on GP2D cells (GP2D cells (K-Ras G12D)) were at most 500 nM and at most 1000 nM, respectively.

For `Nc1nc2c(-c3c(Cl)cc4c(N5CC6CCC(C5)N6C(=O)n5ccnc5Cl)nc(OC[C@@]56CCCN5C[C@H](F)C6)nc4c3F)ccc(F)c2s1` [Compound A242, (3-(7-(2-amino-7-fluorobenzo[d]thiazol-4-yl)-6-chloro-8-fluoro-2-(((2R,7aS)-2-fluorotetrahydro-1H-pyrrolizin-7a(5H)-yl)methoxy)quinazolin-4-yl)-3,8-diazabicyclo[3.2.1]octan-8-yl)(2-chloro-1H-imidazol-1-yl)methanone], the “Ratio of IC50 KRAS G12D vs. IC50 KRAS G12S” value on K-Ras G12S was “A (A: indicates that the ratio of IC50 against KrasG12D vs. IC50 against KrasG12S is 1-fold or greater)”. Also, the concentration for half-maximal inhibition (IC50) is 500 to 5000 nM with A549 cells (setting [2]) and at most 1000 nM with GP2D cells (GP2D cells (K-Ras G12D)).

Consider `N#Cc1c(N)sc2c(F)ccc(-c3c(Cl)cc4c(N5CC6CCC(C5)N6C(=O)n5cc(C(F)(F)F)cn5)nc(OC[C@@]56CCCN5C[C@H](F)C6)nc4c3F)c12` [Compound A122, 2-amino-4-(6-chloro-8-fluoro-2-(((2R,7aS)-2-fluorotetrahydro-1H-pyrrolizin-7 a(5H)-yl)methoxy)-4-(8-(4-(trifluoromethyl)-1H-pyrazole-1-carbonyl)-3,8-diazabicyclo[3.2.1]octan-3-yl)quinazolin-7-yl)-7-fluorobenzo[b]thiophene-3-carbonitrile], for which the “Ratio of IC50 KRAS G12D vs. IC50 KRAS G12S” value at K-Ras G12S was “A (A: indicates that the ratio of IC50 against KrasG12D vs. IC50 against KrasG12S is 1-fold or greater)”. In addition, the IC50 was 500 to 5000 nM in the test with A549 cells (setting [2]) and at most 1000 nM in the test with GP2D cells (GP2D cells (K-Ras G12D)).

In the case of `Nc1nc2c(-c3c(Cl)cc4c(N5C[C@H]6CC[C@@H](C5)N6C(=O)Nc5ccncn5)nc(OC[C@@]56CCCN5C[C@H](F)C6)nc4c3F)ccc(F)c2s1` [Compound A223, (1R,5S)-3-(7-(2-amino-7-fluorobenzo[d]thiazol-4-yl)-6-chloro-8-fluoro-2-(((2R,7aS)-2-fluorotetrahydro-1H-pyrrolizin-7a(5H)-yl)methoxy)quinazolin-4-yl)-N-(pyrimidin-4-yl)-3,8-diazabicyclo[3.2. 1]octane-8-carboxamide], the “Ratio of IC50 KRAS G12D vs. IC50 KRAS G12S” value at K-Ras G12S was “A (A: indicates that the ratio of IC50 against KrasG12D vs. IC50 against KrasG12S is 1-fold or greater)”. For the same compound, the IC50 in the test on A549 cells (setting [4]) is 500 to 5000 nM; with GP2D cells (GP2d) it was at most 1000 nM.

For the compound `C#Cc1c(F)ccc2cc(O)cc(-c3ncc4c(N5CCOCC6(CN(C(=O)n7cncn7)C6)C5)nc(OC[C@@]56CCCN5C[C@H](F)C6)nc4c3F)c12` [Compound A158, (9-(7-(8-ethynyl-7-fluoro-3-hydroxynaphthalen-1-yl)-8-fluoro-2-(((2R,7aS)-2-fluorotetrahydro-1H-pyrrolizin-7a(5H)-yl)methoxy)pyrido[4,3-d]pyrimidin-4-yl)-6-oxa-2,9-diazaspiro[3.6]decan-2-yl)(1H-1,2,4-triazol-1-yl)methanone], the “Ratio of IC50 KRAS G12D vs. IC50 KRAS G12S” value at K-Ras G12S is on record as “A (A: indicates that the ratio of IC50 against KrasG12D vs. IC50 against KrasG12S is 1-fold or greater)”. Further, the IC50 with A549 cells (setting [2]) fell in the range of 500 to 5000 nM; in the test on GP2D cells (GP2D cells (K-Ras G12D)), 1000 to 10000 nM.

For the compound `Nc1nc2c(-c3c(Cl)cc4c(N5CC6CCC(C5)N6C(=O)n5ccnn5)nc(OC[C@@]56CCCN5C[C@H](F)C6)nc4c3F)ccc(F)c2s1` [Compound A153, (3-(7-(2-amino-7-fluorobenzo[d]thiazol-4-yl)-6-chloro-8-fluoro-2-(((2R,7aS)-2-fluorotetrahydro-1H-pyrrolizin-7a(5H)-yl)methoxy)quinazolin-4-yl)-3,8-diazabicyclo[3.2.1]octan-8-yl)(1H-1,2,3-triazol-1-yl)methanone], on K-Ras G12S, the “Ratio of IC50 KRAS G12D vs. IC50 KRAS G12S” value is listed as “A (A: indicates that the ratio of IC50 against KrasG12D vs. IC50 against KrasG12S is 1-fold or greater)”. In addition, the IC50 in the test with A549 cells (setting [4]) was 500 to 5000 nM; with GP2D cells (GP2d), at most 1000 nM.

With `Nc1nc2c(-c3c(Cl)cc4c(N5CC6CCC(C5)N6C(=O)n5ccnc5)nc(OC[C@@]56CCCN5C[C@H](F)C6)nc4c3F)ccc(F)c2s1` [Compound A289, (3-(7-(2-amino-7-fluorobenzo[d]thiazol-4-yl)-6-chloro-8-fluoro-2-(((2R,7aS)-2-fluorotetrahydro-1H-pyrrolizin-7a(5H)-yl)methoxy)quinazolin-4-yl)-3,8-diazabicyclo[3.2.1]octan-8-yl)(1H-imidazol-1-yl)methanone], on K-Ras G12S, the “Ratio of IC50 KRAS G12D vs. IC50 KRAS G12S” value is “A (A: indicates that the ratio of IC50 against KrasG12D vs. IC50 against KrasG12S is 1-fold or greater)”. Besides, the half-inhibitory concentration (IC50) in the test with A549 cells (setting [2]) was 500 to 5000 nM; in the test with GP2D cells (GP2D cells (K-Ras G12D)), at most 1000 nM.
